Source: patent publication US20230407296A1, “Method to Regulate ALOX12-AS1 IncRNA-Mediated Alteration of ALOX12 Protein and to Screen for Novel Drugs to Alter ALOX12 Protein Level” (priority 2021, published 2023)
d = 2'-deoxy (DNA); m = 2'-O-methyl

Columns and labels:
ALOX12 = target: T1, ALOX12 (Homo sapiens, UniProt P18054); conditions: cited from earlier work
T1 sequence (P18054 1-663): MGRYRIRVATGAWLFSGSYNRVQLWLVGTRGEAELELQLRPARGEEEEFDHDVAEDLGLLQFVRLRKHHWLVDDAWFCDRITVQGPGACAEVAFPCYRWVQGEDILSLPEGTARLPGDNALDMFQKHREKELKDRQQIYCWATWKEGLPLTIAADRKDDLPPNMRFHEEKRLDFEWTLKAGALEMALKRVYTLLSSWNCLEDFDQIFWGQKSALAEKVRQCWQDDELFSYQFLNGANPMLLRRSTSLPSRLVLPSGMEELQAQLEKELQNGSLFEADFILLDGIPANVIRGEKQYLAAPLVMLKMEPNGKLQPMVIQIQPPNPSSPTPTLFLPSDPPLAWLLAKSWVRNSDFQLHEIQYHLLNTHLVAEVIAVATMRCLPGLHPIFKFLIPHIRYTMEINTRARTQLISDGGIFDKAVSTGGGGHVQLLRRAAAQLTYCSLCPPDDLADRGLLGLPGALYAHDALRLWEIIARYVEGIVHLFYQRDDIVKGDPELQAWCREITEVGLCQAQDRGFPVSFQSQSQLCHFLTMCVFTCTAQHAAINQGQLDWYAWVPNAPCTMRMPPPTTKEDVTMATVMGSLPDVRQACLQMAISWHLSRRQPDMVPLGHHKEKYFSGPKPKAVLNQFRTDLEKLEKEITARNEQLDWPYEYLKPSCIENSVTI

ALOX12 mRNA [1] = conditions: HepG2 cells; cited from earlier work
ALOX12 mRNA [2] = assay: ALOX12 mRNA level in HEK293 cells (multiplex RT-PCR / qPCR); assay type: cell-based, human
Text: HEK293 cells were transiently transfected with plasmids expressing ALOX12-AS1-201/202 to study lncRNA-mediated suppression of ALOX12. […] The nucleo-cytoplasmic abundance of ALOX12-AS1 lncRNA may be tightly regulated in HEK293 cells. Therefore, increased transcription of the transfected plasmids in the nucleus may not ensure higher levels of the lncRNAs in the cytoplasm, which may be a requisite for suppression of ALOX12. To overcome this limitation, HEK293 cells were transfected with in vitro transcribed ALOX12-AS1-201/202 mRNAs to ensure high cytoplasmic abundance of the antisense lncRNAs. […]
(§1) Total RNA from different cell lines was extracted with Trizol reagent (Catalog number: 15596026; ThermoFisher Scientific, Canada) as per the manufacturer's recommended protocol. […] Absolute quantification of ALOX12-AS1 lncRNA isoforms was performed in a Mastercycler®ep realplex real-time PCR system (Eppendorf, Hamburg, Germany) using SYBR green dye (Catalog number: S7563; ThermoFisher Scientific). […] Real-time PCR data quality control calculations were determined by the SAS program as described previously and the calculated PCR efficiency was between 95%-99%. Quantitative RT-PCR was conducted for different cell-line derived RNAs, and the specificity of each amplified product was confirmed by melting curve analysis. Results were expressed as copy number of specific isoforms per 100 ng of total RNA.

ALOX12-AS1-202 = ALOX12-AS1-202 level in ASO-transfected HEK293 cells (multiplex RT-PCR / qPCR); assay type: cell-based, human; conditions: HEK293, ALOX12-AS1-201-targeted ASO, 24 hours after transfection, quantitative PCR
Procedure: (§2) Small interfering RNA (siRNA)-mediated knockdown of ALOX12-AS1 in HEK293 cells was ineffective possibly because of the nuclear localization of the lncRNA. As an alternative approach, multiple isoform-specific oligonucleotides (ASOs) complementary to different regions of ALOX12-AS1-201/202 were designed (FIG. 7A-C).
(§3) Three ALOX12-AS1-202-specific ASOs were designed and two of them (ASO-2 and -3) reduced ALOX12-AS1-202 mRNA levels within 24 hours of transfection (FIGS. 7L&O, red rectangle).
as §1

ALOX12-AS1-201 = ALOX12-AS1-201 level in ASO-transfected HEK293 cells (multiplex RT-PCR / qPCR); assay type: cell-based, human
Procedure: as §2, §3, §1

[3] = system: ALOX12 protein level in HEK293 cells; assay: ALOX12 protein level in HEK293 cells (immunoblot); assay type: cell-based, human
Procedure: Relative quantification of proteins was performed as described previously [35, 106]. The cell lysates were prepared in 1×RIPA lysis and extraction buffer (catalogue number: 89900, ThermoFisher Scientific) supplemented with 1× Halt protease and phosphatase inhibitor cocktail (catalogue number: 78441, ThermoFisher Scientific). The protein lysates were denatured in Laemmli buffer containing 2% SDS, 10% glycerol, 0.002% bromophenol blue, 0.75 M Tris-HCl pH 6.8, and 100 mM DTT. The immunoblots were imaged using a ChemiDoc XRS+ system (Bio-Rad) and band intensities were quantified using ImageJ (version 1.48) Software [107]. Due to the possibility of inconsistency in the relative expression of housekeeping genes, we normalized all proteins of interest based on the intensity of the Oriole-stained protein profile [92].

For O=c1cc(-c2ccccc2)oc2cc(O)c(O)c(O)c12 [baicalein, 5,6,7-Trihydroxyflavone], the “inhibition of ALOX12” value (ALOX12) is listed as “can be inhibited” and the “selectivity for ALOX12 over other ALOXs” value (ALOX12; inhibits other ALOXs) is listed as “not selective for ALOX12”.
For CCCCCCCC/C=C/CCCCCCCC(=O)O [elaidic acid], the “reduction of ALOX12 mRNA expression” value (ALOX12 mRNA [1]) is listed as 1.8 fold.
With “mA*mG*mA*mA*mC*T*G*T*C*A*A*T*A*A*T*mC*mU*mU*mA*mC (antisense AGAACTGTCAATAATCUUAC; sugars from the 5' end m5 d10 m5, all phosphorothioate, methylation of C not given here) [ASO-4, ALOX12-AS1-201-targeted gapmer ASO]” the “ALOX12 mRNA level” value (ALOX12 mRNA [2]; HEK293, ALOX12-AS1-201-targeted ASO, 24 hours after transfection, quantitative PCR) was “unchanged”, the “ALOX12 mRNA levels” value (ALOX12 mRNA [2]; HEK293, ALOX12-AS1-201-targeted ASOs, multiplex RT-PCR) was “relatively unaltered” and the ALOX12-AS1-202 isoform level (ALOX12-AS1-202) was “significant reduction”. For the same compound, the ALOX12-AS1-201 isoform level (ALOX12-AS1-201; HEK293, 24 hours after transfection, quantitative PCR) was “significant reduction”, the “knockdown of ALOX12-AS1-201” value (ALOX12-AS1-201; HEK293, ALOX12-AS1-201-targeted ASOs, within 24 hours of transfection, multiplex RT-PCR) was about 27% and the ALOX12 protein level ([3]; HEK293, ALOX12-AS1-201-targeted ASO, 24 hours after transfection, quantified immunoblot) was “significantly reduced”. For the same compound, the ALOX12 protein level ([3]; HEK293, ALOX12-AS1-201-targeted ASOs, immunoblot) was “dramatically reduced”.
